One series deals with epithelial HeLa cells. Nature of the series: Cytotoxicity assays: resazurin reduction assay and LDH release assay. Format: cell-based, human. The settings on record: 24 hours, Figures 11 and 12. Here is the method:
The cytotoxicity of the peptides was determined with a Resazurin cell viability assay (Sigma #R7017). In a 96-well plate (Corning #3904), monolayers of epithelial HeLa ATCC CCL-2 cells were grown in 100 µl growth medium (DMEM (Sigma #D5796) containing 10% FCS). Afterwards, the medium was removed and either replaced by DMEM/10% FCS containing 2-fold serial diluted peptides with a highest concentration of 256 mg/L. After 24 hours, the medium was removed and replaced by 100 µl fresh growth medium. 1% Triton X-100 (Sigma) was used as positive lysis control. 20 µl of resazurin solution (0.1 mg/ml) was added. After 2 hours, the fluorescence signal was recorded using a microplate reader (Synergy H4 BioTek) with an excitation wavelength of 560 nm and emission wavelength 590 nm.
Cells were prepared and treated with peptides as described for the resazurin reduction assay. 24 hours after peptide treatment, control wells were treated with 1% Triton X-100 (Sigma) as lysis control. LDH release was measured using the LDH Cytotoxicity Detection Kit (Clontech). Absorbance was measured at 490 nm using a microplate reader (Synergy H4 BioTek). The percentage of cell death was calculated as follows: (LDH peptide treated - LDH untreated)/(LDH total lysis - LDH untreated)* 100.
Background: Alamar Blue is a resazurin reagent that responds to reducing activity.

The next series can be described thus: in vitro. The series is classed as in vitro ADME, P. aeruginosa PAO1. The settings on record: cells or culture medium. How it is done:
P. aeruginosa PAO1 lysate, which was used to test peptide stability, was prepared by the following procedure. 500 ml of cells grown overnight at 37°C were harvested by centrifugation at 5000 rpm, 10 min at 4°C. Pellets were resuspended in 60 ml PBS (Gibco) and centrifuged at 5000 rpm, 10 min at 4°C. Pellets were resuspended again in 20 ml PBS and centrifuged at 5000 rpm, 10 min at 4°C. Cells were disrupted using high-pressure cell disrupter (Stansted Fluid Power). Cell lysate was separated from cell debris by centrifugation at 14,000 rpm for 20 min at 4°C. Lysate was diluted 10 fold to yield a protein content of about 1 mg/ml. The lysate was used for all experiments described below.
The stability of peptides was tested against P. aeruginosa PAO1 cell lysate. About 1 to 3 µg of peptides were incubated with 5 µl P. aeruginosa PAO1 cell lysate or PBS (untreated controls) at 37°C. After 2 hours, 6 µl of 2x SDS sample buffer was added to the samples and heated to 95°C for 5 min. Samples were analyzed on 10-20% Mini-PROTEAN tris-tricine gels (BIO-RAD #4563115) according to manufacturer's recommended protocol. Band intensities were quantified using the program ImageJ (Schneider, C. A., Rasband, W. S. and Eliceiri, K. W. 2012. NIH Image to ImageJ: 25 years of image analysis. Nature methods. 9: 671-675).

Series [1] relates to P. aeruginosa PAO1 biofilms. The series is classed as cell-based. The settings on record: PAO1, 24 h. Here is the method:
The parameter "MBIC50", as used herein, is defined as the peptide concentration leading to 50% biofilm reduction in a standard biofilm assay. Preferably, the medium used for the assay is Mueller-Hinton broth (MHB), since most bacteria can be grown in this medium, and it allows a reliable comparison of MBIC values. MBIC50 values in accordance with the invention are obtained by growing P. aeruginosa at 37°C in presence of different concentrations of peptides, without agitation, for 24 h, followed by staining the adherent biofilm, dissolving the biofilm and measuring the OD600.
The standard biofilm assay (O'Toole G.A., Pratt L.A., Watnick P.I., Newman D.K., Weaver V.B., and Kolter R. 1999. Genetic approaches to study of biofilms. Methods Enzymol. 310: 91-109) was followed with minor modification, i.e. Mueller-Hinton II broth (MHB) (Becton Dickinson #212322) was used instead of lysogenic broth (LB) or minimal medium. MHB is preferred by The European Committee on Antimicrobial Susceptibility Testing (EUCAST) as the medium for MIC determination because most bacteria can be grown in this medium, which allows a more reliable MIC values comparisons. The MBIC50 was defined as the peptide concentration leading to 50% biofilm reduction (de la Fuente-Nunez C., Korolik V., Bains M., Nguyen U., Breidenstein E. B. M., Horsman S., Lewenza S., Burrows L., Hancock, R. E. W. (2012) Inhibition of bacterial biofilm formation and swarming motility by a small synthetic cationic peptide. 56: 2696-2704). MBIC50 values were obtained by growing P. aeruginosa (PAO1) biofilms in 96-well plates (Falcon #353072) in presence of peptides at 37°C without agitation in MHB. After 24 hours, bacterial growth was evaluated by measuring the OD600 in a microtiter plate reader (EL800, BioTek). Afterwards, the plates were rinsed three times with demineralized water to remove non-attached bacteria. The adherent biofilms were stained with 0.1% Crystal Violet and subsequently dissolved in 20% acetic acid. Dissolved biofilms were quantified by measuring the OD600 in a microtiter plate reader.

The next series concerns the target c-di-GMP. Nature of the series: Binding affinity of peptides to c-di-GMP by isothermal titration calorimetry (ITC). The settings on record: for Kd: Table 3, peptides with amino acid substitution, 15°C, pH 8.0, read-out: Dissociation constant. How it is done: Binding affinities of peptides to c-di-GMP were measured using isothermal titration calorimetry (ITC) on a VP-ITC MicroCalorimeter (MicroCal, Northampton, MA, USA). Peptides, c-di-GMP and buffer (50 mM Tris-HCl, pH 8.0, 100 mM NaCl) were degassed for 15 min prior to filling into sample cell and syringe. All experiments were carried out at a temperature of 15°C. The data were evaluated using ITC Data Analysis in ORIGIN provided by the manufacturer.
Background: ITC needs no label: the signal is the heat of the interaction.

Square brackets hold non-standard residues; d marks the D form. Peptide text beside a SMILES is read from it. * marks the point of attachment. FITC = O=C1OC2(c3ccc(O)cc3Oc3cc(O)ccc32)c2ccc(NC(=S)*)cc21

Experimental findings from patent publication EP3335720A1, “C-DI-GMP BINDING PEPTIDES” (Universität Basel, priority 2016, dated 2018) are described below.

A word on the share remaining: it is the share of the starting amount still present when the sample was taken. Read a high share remaining as greater stability.

For the compound `C[C@H](NC(=O)[C@H](CO)NC(=O)[C@H](CC(N)=O)NC(=O)[C@H](Cc1ccccc1)NC(=O)[C@H](CCCNC(=N)N)NC(=O)[C@H](CCCNC(=N)N)NC(=O)[C@H](CCCNC(=N)N)NC(=O)[C@H](CC(=O)O)NC(=S)Nc1ccc2c(c1)C(=O)OC21c2ccc(O)cc2Oc2cc(O)ccc21)C(=O)N[C@@H](CC(=O)O)C(=O)N[C@@H](Cc1ccc(O)cc1)C(=O)N[C@@H](CCCCN)C(=O)NCC(=O)N1CCC[C@H]1C(=O)N[C@@H](CCCNC(=N)N)C(=O)N[C@@H](CCCNC(=N)N)C(=O)N[C@@H](CCCNC(=N)N)C(=O)N[C@@H](CCCCN)C(=O)N[C@@H](C)C(=O)N[C@@H](CC(=O)O)C(N)=O` [SEQ ID NO: 43, FITC-DRRRFNSADYKGPRRRKAD-NH2] ({FITC}-DRRRFNSADYKGPRRRKAD-NH2), the “concentration up to which no toxic effect was shown” value in the series with epithelial HeLa cells was not above 64000 ng/mL. Regarding `C[C@H](NC(=O)[C@H](CO)NC(=O)[C@H](CC(N)=O)NC(=O)[C@H](Cc1ccccc1)NC(=O)[C@H](CCCNC(=N)N)NC(=O)[C@H](CCCNC(=N)N)NC(=O)[C@H](CCCNC(=N)N)NC(=O)[C@H](CC(=O)O)NC(=O)[C@H](CCCNC(=N)N)NC(=O)[C@H](CCCNC(=N)N)NC(=O)[C@H](CCCNC(=N)N)NC(=O)[C@H](CCCNC(=N)N)NC(=O)[C@H](CCCNC(=N)N)NC(=O)[C@H](CCCNC(=N)N)NC(=O)[C@H](CCCNC(=N)N)NC(=O)[C@H](CCCNC(=N)N)NC(=S)Nc1ccc2c(c1)C(=O)OC21c2ccc(O)cc2Oc2cc(O)ccc21)C(=O)N[C@@H](CC(=O)O)C(=O)N[C@@H](Cc1ccc(O)cc1)C(=O)N[C@@H](CCCCN)C(=O)NCC(=O)N1CCC[C@H]1C(=O)N[C@@H](CCCNC(=N)N)C(=O)N[C@@H](CCCNC(=N)N)C(=O)N[C@@H](CCCNC(=N)N)C(=O)N[C@@H](CCCCN)C(=O)N[C@@H](C)C(=O)N[C@@H](CC(=O)O)C(N)=O` [SEQ ID NO: 48] ({FITC}-RRRRRRRRDRRRFNSADYKGPRRRKAD-NH2), the “concentration up to which no toxic effect was shown” value with epithelial HeLa cells was not above 32000 ng/mL. `C[C@H](NC(=O)[C@H](CO)NC(=O)[C@H](CC(N)=O)NC(=O)[C@H](Cc1ccccc1)NC(=O)[C@H](CCCNC(=N)N)NC(=O)[C@H](CCCNC(=N)N)NC(=O)[C@H](CCCNC(=N)N)NC(=O)[C@H](CC(=O)O)NC(=O)[C@H](N)CCCNC(=N)N)C(=O)N[C@@H](CC(=O)O)C(=O)N[C@@H](Cc1ccc(O)cc1)C(=O)N[C@@H](CCCCN)C(=O)NCC(=O)N1CCC[C@H]1C(=O)N[C@@H](CCCNC(=N)N)C(=O)N[C@@H](CCCNC(=N)N)C(=O)N[C@@H](CCCNC(=N)N)C(=O)N[C@@H](CCCCN)C(=O)N[C@@H](C)C(=O)N[C@@H](CC(=O)O)C(=O)N[C@H](C)C(N)=O` [compound 42] (H-[dR]DRRRFNSADYKGPRRRKAD[dA]-NH2) registered a share remaining at 2 h in “in vitro” of 38%. Take `C[C@H](NC(=O)[C@H](CO)NC(=O)[C@H](CC(N)=O)NC(=O)[C@H](Cc1ccccc1)NC(=O)[C@H](CCCNC(=N)N)NC(=O)[C@H](CCCNC(=N)N)NC(=O)[C@H](CCCNC(=N)N)NC(=O)[C@H](CC(=O)O)NC(=S)Nc1ccc2c(c1)C(=O)OC21c2ccc(O)cc2Oc2cc(O)ccc21)C(=O)N[C@@H](CC(=O)O)C(=O)N[C@@H](Cc1ccc(O)cc1)C(=O)N[C@@H](CCCCN)C(=O)NCC(=O)N1CCC[C@H]1C(=O)N[C@@H](CCCNC(=N)N)C(=O)N[C@@H](CCCNC(=N)N)C(=O)N[C@@H](CCCNC(=N)N)C(=O)N[C@@H](CCCCN)C(=O)N[C@@H](C)C(=O)N[C@@H](CC(=O)O)C(N)=O` [compound 43] ({FITC}-DRRRFNSADYKGPRRRKAD-NH2): in series [1], the MBIC50 lay in the range of 0.25 to 0.5 mg/L. As to “Ac-ARRRFNSADYKGPRRRKAD-NH2 [compound 13]”, the fraction remaining at 2 h in the series “in vitro” was 56%. Moreover, the Kd at c-di-GMP was determined as 1530 nM. In turn, “Ac-DARRFNSADYKGPRRRKAD-NH2 [compound 14]” yielded an amount remaining at 2 h in “in vitro” of 12%. Moreover, the Kd on c-di-GMP was 1450 nM. The matching figures for “Ac-DRARFNSADYKGPRRRKAD-NH2 [compound 15]”: 11% and 1510 nM.

As for “Ac-DRRAFNSADYKGPRRRKAD-NH2 [compound 16]”, the share remaining at 2 h in “in vitro” turned out to be 35%. Moreover, on c-di-GMP, the Kd was determined as 780 nM. “Ac-DRRRANSADYKGPRRRKAD-NH2 [SEQ ID NO: 17, AC-DRRRANSADYKGPRRRKAD-NH2]” displayed an amount remaining at 2 h in “in vitro” of 70%. Also, the “binding affinity to c-di-GMP, in words” value in the series on c-di-GMP (compared to the core sequence / peptide of SEQ ID NO: 12) was “does not significantly reduce binding affinity”. In turn, “Ac-DRRRFASADYKGPRRRKAD-NH2 [compound 18]” had a share remaining at 2 h in “in vitro” of 1%. Further, the Kd on c-di-GMP stood at 220 nM. “Ac-DRRRFNAADYKGPRRRKAD-NH2 [compound 19]” gave a fraction remaining at 2 h in “in vitro” of 30%. At c-di-GMP, the Kd turned out to be 210 nM. As to “Ac-DRRRFNSAAYKGPRRRKAD-NH2 [compound 21]”, the fraction remaining at 2 h in “in vitro” was 2%. Moreover, the Kd at c-di-GMP was 150 nM. Consider “Ac-DRRRFNSADAKGPRRRKAD-NH2 [compound 22]”, for which the share remaining at 2 h in “in vitro” was 39%. Further, the Kd on c-di-GMP came out at 4360 nM. “Ac-DRRRFNSADYAGPRRRKAD-NH2 [compound 23]”: the fraction remaining at 2 h in “in vitro” amounted to 42%. The Kd at c-di-GMP came to 260 nM. With “Ac-DRRRFNSADYKAPRRRKAD-NH2 [compound 24]”, in “in vitro”, the amount remaining at 2 h amounted to 41%. Further, the Kd on c-di-GMP was 4070 nM. In the series “in vitro”, “Ac-DRRRFNSADYKGARRRKAD-NH2 [compound 25]” yielded an amount remaining at 2 h of 30%. Further, the Kd at c-di-GMP amounted to 350 nM. “Ac-DRRRFNSADYKGPARRKAD-NH2 [compound 26]” yielded a fraction remaining at 2 h in the series “in vitro” of 27%. For the same compound, on c-di-GMP, the Kd is 1830 nM. Taken in the same sequence, the figures for “Ac-DRRRFNSADYKGPRARKAD-NH2 [compound 27]” were 2% and 3950 nM. In the series “in vitro”, “Ac-DRRRFNSADYKGPRRRAAD-NH2 [compound 29]” yielded a share remaining at 2 h of 9%. In addition, the Kd on c-di-GMP is 270 nM. Taken in the same sequence, the figures for “Ac-DRRRFNSADYKGPRRRKAA-NH2 [compound 31]” were 26% and 1750 nM. Turning to “Ac-DRRRFNSADYKGPRRRKAD-NH2 [compound 12]”, the MBIC50 in series [1] was 0.25 to 0.5 mg/L. Take “Ac-DRRRFNSADYKGPRRRKLD-NH2 [compound 30]”: the amount remaining at 2 h in the series “in vitro” turned out to be 51%. For the same compound, the Kd on c-di-GMP turned out to be 250 nM.

In the series “in vitro”, “Ac-DRRRFNSLDYKGPRRRKAD-NH2 [compound 20]” had an amount remaining at 2 h of 27%. Also, the Kd on c-di-GMP was 100 nM.
